Data on 15 compounds can be found in patent publication US11986532B2 (Arvinas Operations, Inc., priority 2021, dated 2024).

In the experiment the target is T1, BCL6 (Homo sapiens, UniProt P41182).
T1 construct: endogenous in cells; host or cells: T47D breast cancer epithelial cells
The experiment is described as follows: Immunofluorescence protocol for high content imaging of BCL6 (degradation) in T47D cells, 3 days compound treatment. The note with it: for Dmax: read-out: Mean Dmax (%)** category; for DC50: read-out: Mean DC50 (nM)* category. Format: cell-based. The essentials:
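T47D, RPMI1640/10% FBS; cpd 11-pt 3-fold, top 0.1 or 1 μM final; 3 d, 37° C. Fix 4% PFA, perm 0.1% Triton, block 3% BSA; anti-BCL6 1:300 o/n 4° C; Alexa-488 2°, CellMask-647, Hoechst. Imaged 10×, 4 fields/well.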

Where [1] appears, read: T47D cells, 3 days compound treatment.

Read-outs that look alike come from different tables or passages of the source.

For `CNC(=O)COc1cc2cc(Nc3nc(N4CCC(CN5CCC6(CC5)CCN6c5cccc6c5CN(C5CCC(=O)NC5=O)C6=O)CC4)ncc3Cl)ccc2n(C(C)C)c1=O` (centres unmarked) [Compound 334, 2-{[6-({5-chloro-2-[4-({1-[2-(2,6-dioxopiperidin-3-yl)-1-oxo-2,3-dihydro-1H-isoindol-4-yl]-1,7-diazaspiro[3.5]nonan-7-yl}methyl)piperidin-1-yl]pyrimidin-4-yl}amino)-2-oxo-1-(propan-2-yl)-1,2-dihydroquinolin-3-yl]oxy}-N-methylacetamide], the half-maximal degradation concentration (DC50) (usually the concentration at which degradation of the target reaches its halfway point) is under 10 nM. Besides, the Dmax (as a rule, the largest share of the target that was removed) (T47D) was in the range of 50 to 70%.
For the compound `CNC(=O)COc1cc2cc(Nc3nc(N4CCC(C(C)(C)N5CCC6(CC5)CN(c5ccc7c(c5)CN(C5CCC(=O)NC5=O)C7=O)C6)CC4)ncc3Cl)ccc2n(C(C)C)c1=O` (centres unmarked) [Compound 58, 2-{[6-({5-chloro-2-[4-(2-{2-[2-(2,6-dioxopiperidin-3-yl)-1-oxo-2,3-dihydro-1H-isoindol-5-yl]-2,7-diazaspiro[3.5]nonan-7-yl}propan-2-yl)piperidin-1-yl]pyrimidin-4-yl}amino)-2-oxo-1-(propan-2-yl)-1,2-dihydroquinolin-3-yl]oxy}-N-methylacetamide], under setting [1], the DC50 is under 10 nM and the maximal degradation (Dmax) was at least 70%.
As for `CNC(=O)COc1cc2cc(Nc3nc(N4CCC(O[C@H]5C[C@H](N6CCC7(CC6)CN(c6ccc8c(c6C)C(=O)N(C6CCC(=O)NC6=O)C8=O)C7)C5)CC4)ncc3Cl)ccc2n(C(C)C)c1=O` (some centres unmarked) [Compound 414, 2-({6-[(5-chloro-2-{4-[(1r,3r)-3-{2-[2-(2,6-dioxopiperidin-3-yl)-4-methyl-1,3-dioxo-2,3-dihydro-1H-isoindol-5-yl]-2,7-diazaspiro[3.5]nonan-7-yl}cyclobutoxy]piperidin-1-yl}pyrimidin-4-yl)amino]-2-oxo-1-(propan-2-yl)-1,2-dihydroquinolin-3-yl}oxy)-N-methylacetamide], the DC50 was under 10 nM. Besides, the Dmax (T47D) is at least 70%.
As to `CNC(=O)COc1cc2cc(Nc3nc(N4CCC(CN5CCC6(CN(c7ccc8c(c7)CN(C7CCC(=O)NC7=O)C8=O)C6)C(F)(F)C5)CC4)ncc3Cl)ccc2n(C(C)C)c1=O` (centres unmarked) [Compound 90, 2-{[6-({5-chloro-2-[4-({2-[2-(2,6-dioxopiperidin-3-yl)-1-oxo-2,3-dihydro-1H-isoindol-5-yl]-5,5-difluoro-2,7-diazaspiro[3.5]nonan-7-yl}methyl)piperidin-1-yl]pyrimidin-4-yl}amino)-2-oxo-1-(propan-2-yl)-1,2-dihydroquinolin-3-yl]oxy}-N-methylacetamide], under setting [1], the half-maximal degradation concentration (DC50) is under 10 nM and the Dmax lay within 50 to 70%.
As to `CNC(=O)COc1cc2cc(Nc3cc(N4CCC(F)(CN5CCC6(CC5)CN(c5ccc7c(c5F)CN(C5CCC(=O)NC5=O)C7=O)C6(C)C)CC4)ncc3Cl)ccc2n(C(C)C)c1=O` (centres unmarked) [Compound 257, 2-{[6-({5-chloro-2-[4-({2-[2-(2,6-dioxopiperidin-3-yl)-4-fluoro-1-oxo-2,3-dihydro-1H-isoindol-5-yl]-1,1-dimethyl-2,7-diazaspiro[3.5]nonan-7-yl}methyl)-4-fluoropiperidin-1-yl]pyridin-4-yl}amino)-2-oxo-1-(propan-2-yl)-1,2-dihydroquinolin-3-yl]oxy}-N-methylacetamide], the DC50 was under 10 nM. Moreover, the Dmax (T47D) fell in the range of 50 to 70%.
With `CNC(=O)COc1cc2cc(Nc3nc(N4CCC(O[C@H]5C[C@H](N6CC7CCC(C6)N7c6ccc7c(c6)CN(C6CCC(=O)NC6=O)C7=O)C5)CC4)ncc3Cl)ccc2n(C(C)C)c1=O` (some centres unmarked) [Compound 371, 2-({6-[(5-chloro-2-{4-[(1r,3r)-3-{8-[2-(2,6-dioxopiperidin-3-yl)-1-oxo-2,3-dihydro-1H-isoindol-5-yl]-3,8-diazabicyclo[3.2.1]octan-3-yl}cyclobutoxy]piperidin-1-yl}pyrimidin-4-yl)amino]-2-oxo-1-(propan-2-yl)-1,2-dihydroquinolin-3-yl}oxy)-N-methylacetamide], the DC50 was under 10 nM. For the same compound, the Dmax (T47D) was under 50%.
On the same counts, the results for `CNC(=O)COc1cc2cc(Nc3nc(N4CCC(CN5CCC6(CC5)CN(c5ccc7c(c5OC)CN(C5CCC(=O)NC5=O)C7=O)C6)CC4)ncc3Cl)ccc2n(C(C)C)c1=O` (centres unmarked) [Compound 302, 2-{[6-({5-chloro-2-[4-({2-[2-(2,6-dioxopiperidin-3-yl)-4-methoxy-1-oxo-2,3-dihydro-1H-isoindol-5-yl]-2,7-diazaspiro[3.5]nonan-7-yl}methyl)piperidin-1-yl]pyrimidin-4-yl}amino)-2-oxo-1-(propan-2-yl)-1,2-dihydroquinolin-3-yl]oxy}-N-methylacetamide] are under 10 nM and 50 to 70%.
On to `CNC(=O)COc1cc2c(F)c(Nc3nc(N4CCC(CN5CCC6(CN(c7ccc8c(c7)CN(C7CCC(=O)NC7=O)C8=O)C6)C(F)(F)C5)CC4)ncc3Cl)ccc2n(C(C)C)c1=O` (centres unmarked) [Compound 171, 2-{[6-({5-chloro-2-[4-({2-[2-(2,6-dioxopiperidin-3-yl)-1-oxo-2,3-dihydro-1H-isoindol-5-yl]-5,5-difluoro-2,7-diazaspiro[3.5]nonan-7-yl}methyl)piperidin-1-yl]pyrimidin-4-yl}amino)-5-fluoro-2-oxo-1-(propan-2-yl)-1,2-dihydroquinolin-3-yl]oxy}-N-methylacetamide], for which, under setting [1], the DC50 was under 10 nM and the maximal degradation (Dmax) was at least 70%.
In the case of `CNC(=O)COc1cc2cc(Nc3nc(N4CCC(C(C)(C)N5CC6(CCN(c7cccc8c7CN(C7CCC(=O)NC7=O)C8=O)CC6)C5)CC4)ncc3Cl)ccc2n(C(C)C)c1=O` (centres unmarked) [Compound 8, 2-{[6-({5-chloro-2-[4-(2-{7-[2-(2,6-dioxopiperidin-3-yl)-1-oxo-2,3-dihydro-1H-isoindol-4-yl]-2,7-diazaspiro[3.5]nonan-2-yl}propan-2-yl)piperidin-1-yl]pyrimidin-4-yl}amino)-2-oxo-1-(propan-2-yl)-1,2-dihydroquinolin-3-yl]oxy}-N-methylacetamide], under setting [1], the DC50 was under 10 nM and the Dmax was at least 70%.
For `CNC(=O)COc1cc2cc(Nc3nc(N4CCN(CC5CCC6(CC5)CN(c5cc(OC)cc7c5C(=O)N(C5CCC(=O)NC5=O)C7=O)C6)CC4)ncc3Cl)ccc2n(C(C)C)c1=O` (centres unmarked) [Compound 10, 2-{[6-({5-chloro-2-[4-({2-[2-(2,6-dioxopiperidin-3-yl)-6-methoxy-1,3-dioxo-2,3-dihydro-1H-isoindol-4-yl]-2-azaspiro[3.5]nonan-7-yl}methyl)piperazin-1-yl]pyrimidin-4-yl}amino)-2-oxo-1-(propan-2-yl)-1,2-dihydroquinolin-3-yl]oxy}-N-methylacetamide] the same measures were 10 to 50 nM and 50 to 70%.
Regarding `CNC(=O)COc1cc2cc(Nc3nc(N4CCC(O[C@H]5C[C@H](N6CCC(c7ccc8c(c7F)[C@H](C)N([C@H]7CCC(=O)NC7=O)C8=O)CC6)C5)CC4)ncc3Cl)ccc2n(C(C)C)c1=O` [Compound 290, 2-({6-[(5-chloro-2-{4-[(1r,3r)-3-{4-[(3S)-2-[(3S)-2,6-dioxopiperidin-3-yl]-4-fluoro-3-methyl-1-oxo-2,3-dihydro-1H-isoindol-5-yl]piperidin-1-yl}cyclobutoxy]piperidin-1-yl}pyrimidin-4-yl)amino]-2-oxo-1-(propan-2-yl)-1,2-dihydroquinolin-3-yl}oxy)-N-methylacetamide], the DC50 was under 10 nM. Further, where the note is “T47D”, the Dmax is at least 70%.
For `CNC(=O)COc1cc2cc(Nc3nc(N4CCC(O[C@H]5C[C@H](N6CCC(c7cc8c(cc7C(F)(F)F)C(=O)N(C7CCC(=O)NC7=O)C8)CC6)C5)CC4)ncc3Cl)ccc2n(C(C)C)c1=O` (some centres unmarked) [Compound 212, 2-({6-[(5-chloro-2-{4-[(1r,3r)-3-{4-[2-(2,6-dioxopiperidin-3-yl)-1-oxo-6-(trifluoromethyl)-2,3-dihydro-1H-isoindol-5-yl]piperidin-1-yl}cyclobutoxy]piperidin-1-yl}pyrimidin-4-yl)amino]-2-oxo-1-(propan-2-yl)-1,2-dihydroquinolin-3-yl}oxy)-N-methylacetamide] the same measures were under 10 nM and 50 to 70%.
On the same counts, the results for `CNC(=O)COc1cc2cc(Nc3nc(N4CCC(O[C@H]5C[C@H](N6CCN(C7CN(c8ccc9c(c8F)CN(C8CCC(=O)NC8=O)C9=O)C7)CC6)C5)CC4)ncc3Cl)ccc2n(C(C)C)c1=O` (some centres unmarked) [Compound 422, 2-({6-[(5-chloro-2-{4-[(1r,3r)-3-(4-{1-[2-(2,6-dioxopiperidin-3-yl)-4-fluoro-1-oxo-2,3-dihydro-1H-isoindol-5-yl]azetidin-3-yl}piperazin-1-yl)cyclobutoxy]piperidin-1-yl}pyrimidin-4-yl)amino]-2-oxo-1-(propan-2-yl)-1,2-dihydroquinolin-3-yl}oxy)-N-methylacetamide] are under 10 nM and at least 70%.
Turning to `CNC(=O)COc1cc2cc(Nc3nc(N4CCN(CC5C6CN(c7cccc8c7C(=O)N(C7CCC(=O)NC7=O)C8=O)CC56)CC4)ncc3Cl)ccc2n(C(C)C)c1=O` (centres unmarked) [Compound 156, 2-{[6-({5-chloro-2-[4-({3-[2-(2,6-dioxopiperidin-3-yl)-1,3-dioxo-2,3-dihydro-1H-isoindol-4-yl]-3-azabicyclo[3.1.0]hexan-6-yl}methyl)piperazin-1-yl]pyrimidin-4-yl}amino)-2-oxo-1-(propan-2-yl)-1,2-dihydroquinolin-3-yl]oxy}-N-methylacetamide], under setting [1], the DC50 was under 10 nM.
`CNC(=O)COc1cc2cc(Nc3nc(N4CCC(O[C@H]5C[C@H](N6CCC(c7c(C)cc8c(c7F)CN(C7CCC(=O)NC7=O)C8=O)CC6)C5)CC4)ncc3Cl)ccc2n(C(C)C)c1=O` (some centres unmarked) [Compound 397, 2-({6-[(5-chloro-2-{4-[(1r,3r)-3-{4-[2-(2,6-dioxopiperidin-3-yl)-4-fluoro-6-methyl-1-oxo-2,3-dihydro-1H-isoindol-5-yl]piperidin-1-yl}cyclobutoxy]piperidin-1-yl}pyrimidin-4-yl)amino]-2-oxo-1-(propan-2-yl)-1,2-dihydroquinolin-3-yl}oxy)-N-methylacetamide]: the DC50 was under 10 nM. For the same compound, the maximal degradation (Dmax) (T47D) is at least 70%.
